# Results taken from PMC9934367, “Functional impact of subunit composition and compensation on Drosophila melanogaster nicotinic receptors–targets of neonicotinoids” (PLOS Genetics, 2023).
# Tested on: D. melanogaster nAChRs
# Test: Comparison of agonist activity between nAChRs expressed in X. laevis oocytes (one-way ANOVA, Kruskal-Wallis)
# Type: cell-based
# Protocol: We minimised the use of X. laevis according to the UK Animals (Scientific Procedures) Act, 1986. […] Oocytes were defolliculated after collagenase treatment in Ca^2+-free standard oocyte saline (Ca^2+-free SOS). cRNAs of the nAChR subunits and co-factors mixed at a concentration of 0.1 mg/mL was injected into oocytes at a volume of 50 nL. Then the oocytes were incubated in the incubation medium (SOS supplemented with sodium pyruvate (Nacalai Tesque, #13058–12), penicillin-streptomycin (MilliporeSigma, #P4333), gentamycin (Nacalai Tesque, #16672–04), and 4% horse serum (Thermo Fisher Scientific, #26050–070) for 3−4 days prior to electrophysiology.
# Each defolliculated X. laevis oocyte was secured in a Perspex recording chamber and perfused with the standard oocyte saline (SOS) containing 0.5 μM atropine (SOSA) at a flow rate of 7−10 mL/min [48]. Two glass electrodes filled with 2 M KCl were impaled into each oocyte and the membrane potential was clamped at -100 mV. […] The peak amplitude of the response was measured and analysed by pCLAMP (Molecular Devices, USA).
# Y=Imax/1+10^(logEC50‐X)nH
# Where Y is the normalised response, X is log[ligand (M)], EC50 is the half maximal concentration (M), Imax is the maximum normalised response and nH is the Hill coefficient.
# Prism software was employed for the statistical analyses. […] One-way ANOVA was used to analyse the differences of the ligand agonist activity in terms of pEC50 on the various nAChRs expressed in X. laevis as well as data obtained with D. melanogaster larvae and adults.
# [1] = Dα1/Dα2/Dα3/Dβ1/Dβ2 vs. Dα1/Dα2/Dα4/Dβ1/Dβ2
# [2] = Dα1/Dα2/Dα3/Dβ1/Dβ2 vs. Dα1/Dα2/Dβ1/Dβ2/Dβ3
# [3] = Dα1/Dα2/Dα3/Dβ1/Dβ2 vs. Dα1/Dα3/Dα4/Dβ1/Dβ2
# [4] = Dα1/Dα2/Dα3/Dβ1/Dβ2 vs. Dα1/Dα3/Dβ1/Dβ2/Dβ3
# [5] = Dα1/Dα2/Dα3/Dβ1/Dβ2 vs. Dα2/Dα3/Dα4/Dβ1/Dβ2
# [6] = Dα1/Dα2/Dα3/Dβ1/Dβ2 vs. Dα2/Dα3/Dβ1/Dβ2/Dβ3
# [7] = Dα1/Dα2/Dα3/Dβ1 vs. Dα1/Dα2/Dα3/Dβ1/Dβ2
# [8] = Dα1/Dα2/Dα3/Dβ1 vs. Dα1/Dα2/Dβ1/Dβ2
# [9] = Dα1/Dα2/Dα3/Dβ1 vs. Dα1/Dα3/Dβ1/Dβ2
# [10] = Dα1/Dα2/Dα3/Dβ1 vs. Dα1/Dβ1/Dβ2
# [11] = Dα1/Dα2/Dα3/Dβ1 vs. Dα2/Dα3/Dβ1/Dβ2
# [12] = Dα1/Dα2/Dα3/Dβ1 vs. Dα3/Dβ1/Dβ2
# [13] = Dα1/Dα2/Dβ1/Dβ2 vs. Dα1/Dα2/Dα3/Dβ1/Dβ2
# [14] = Dα1/Dα2/Dβ1/Dβ2 vs. Dα2/Dα3/Dβ1/Dβ2
# [15] = Dα1/Dα2/Dβ1 vs. Dα1/Dα2/Dα3/Dβ1
# [16] = Dα1/Dα2/Dβ1 vs. Dα1/Dα2/Dα3/Dβ1/Dβ2
# [17] = Dα1/Dα2/Dβ1 vs. Dα1/Dα2/Dβ1/Dβ2
# [18] = Dα1/Dα2/Dβ1 vs. Dα1/Dα3/Dβ1/Dβ2
# [19] = Dα1/Dα2/Dβ1 vs. Dα2/Dα3/Dβ1/Dβ2
# [20] = Dα1/Dα3/Dβ1/Dβ2 vs. Dα1/Dα2/Dα3/Dβ1/Dβ2
# [21] = Dα1/Dα3/Dβ1/Dβ2 vs. Dα1/Dα2/Dβ1/Dβ2
# [22] = Dα1/Dα3/Dβ1/Dβ2 vs. Dα2/Dα3/Dβ1/Dβ2
# [23] = Dα1/Dα3/Dβ1 vs. Dα1/Dα2/Dα3/Dβ1
# [24] = Dα1/Dα3/Dβ1 vs. Dα1/Dα2/Dα3/Dβ1/Dβ2
# [25] = Dα1/Dα3/Dβ1 vs. Dα1/Dα2/Dβ1/Dβ2
# [26] = Dα1/Dα3/Dβ1 vs. Dα1/Dα3/Dβ1/Dβ2
# [27] = Dα1/Dα3/Dβ1 vs. Dα2/Dα3/Dβ1/Dβ2
# [28] = Dα1/Dβ1/Dβ2 vs. Dα1/Dα2/Dα3/Dβ1/Dβ2
# [29] = Dα1/Dβ1/Dβ2 vs. Dα1/Dα2/Dβ1/Dβ2
smiles,measurement,setting,value
"CN/C(=N\[N+](=O)[O-])NCc1cnc(Cl)s1 [Clothianidin, clothianidin]","Difference of Imax values, nAChRs compared",[1],-0.189
same,"Difference of pEC50 values, nAChRs compared",[1],-0.13
same,"Difference of Imax values, nAChRs compared",[2],-0.162
same,"Difference of pEC50 values, nAChRs compared",[2],0.92
same,"Difference of Imax values, nAChRs compared",[3],0.388
same,"Difference of pEC50 values, nAChRs compared",[3],-0.35
same,"Difference of Imax values, nAChRs compared",[4],0.281
same,"Difference of pEC50 values, nAChRs compared",[4],-1.01
same,"Difference of Imax values, nAChRs compared",[5],-0.100
same,"Difference of pEC50 values, nAChRs compared",[5],-0.52
same,"Difference of Imax values, nAChRs compared",[6],0.117
same,"Difference of pEC50 values, nAChRs compared",[6],-0.87
same,"Difference of Imax values, nAChRs compared",[7],0.005
same,"Difference of pEC50 values, nAChRs compared",[7],-0.04
same,"Difference of Imax values, nAChRs compared",[8],0.017
same,"Difference of pEC50 values, nAChRs compared",[8],0.24
same,"Difference of Imax values, nAChRs compared",[9],0.133
same,"Difference of pEC50 values, nAChRs compared",[9],-0.85
same,"Difference of Imax values, nAChRs compared",[10],0.457
same,"Difference of pEC50 values, nAChRs compared",[10],-0.09
same,"Difference of Imax values, nAChRs compared",[11],0.183
same,"Difference of pEC50 values, nAChRs compared",[11],-0.74
same,"Difference of Imax values, nAChRs compared",[12],0.325
same,"Difference of pEC50 values, nAChRs compared",[12],-0.91
same,"Difference of Imax values, nAChRs compared",[13],-0.012
same,"Difference of pEC50 values, nAChRs compared",[13],-0.28
same,"Difference of Imax values, nAChRs compared",[14],0.166
same,"Difference of pEC50 values, nAChRs compared",[14],-0.98
same,"Difference of Imax values, nAChRs compared",[15],-0.118
same,"Difference of pEC50 values, nAChRs compared",[15],-1.48
same,"Difference of Imax values, nAChRs compared",[16],-0.113
same,"Difference of pEC50 values, nAChRs compared",[16],-1.52
same,"Difference of Imax values, nAChRs compared",[17],-0.101
same,"Difference of pEC50 values, nAChRs compared",[17],-1.24
same,"Difference of Imax values, nAChRs compared",[18],0.015
same,"Difference of pEC50 values, nAChRs compared",[18],-2.33
same,"Difference of Imax values, nAChRs compared",Dα1/Dα2/Dβ1 vs. Dα1/Dβ1/Dβ2,0.339
same,"Difference of pEC50 values, nAChRs compared",Dα1/Dα2/Dβ1 vs. Dα1/Dβ1/Dβ2,-1.57
same,"Difference of Imax values, nAChRs compared",Dα1/Dα2/Dβ1 vs. Dα2/Dα3/Dβ1,-0.183
same,"Difference of pEC50 values, nAChRs compared",Dα1/Dα2/Dβ1 vs. Dα2/Dα3/Dβ1,-1.74
same,"Difference of Imax values, nAChRs compared",[19],0.065
same,"Difference of pEC50 values, nAChRs compared",[19],-2.22
same,"Difference of Imax values, nAChRs compared",Dα1/Dα2/Dβ1 vs. Dα3/Dβ1/Dβ2,0.207
same,"Difference of pEC50 values, nAChRs compared",Dα1/Dα2/Dβ1 vs. Dα3/Dβ1/Dβ2,-2.39
same,"Difference of Imax values, nAChRs compared",[20],-0.128
same,"Difference of pEC50 values, nAChRs compared",[20],0.81
same,"Difference of Imax values, nAChRs compared",[21],-0.116
same,"Difference of pEC50 values, nAChRs compared",[21],1.09
same,"Difference of Imax values, nAChRs compared",[22],0.050
same,"Difference of pEC50 values, nAChRs compared",[22],0.11
same,"Difference of Imax values, nAChRs compared",[23],-0.190
same,"Difference of pEC50 values, nAChRs compared",[23],0.65
same,"Difference of Imax values, nAChRs compared",[24],-0.185
same,"Difference of pEC50 values, nAChRs compared",[24],0.61
same,"Difference of Imax values, nAChRs compared",Dα1/Dα3/Dβ1 vs. Dα1/Dα2/Dβ1,-0.072
same,"Difference of pEC50 values, nAChRs compared",Dα1/Dα3/Dβ1 vs. Dα1/Dα2/Dβ1,2.13
same,"Difference of Imax values, nAChRs compared",[25],-0.173
same,"Difference of pEC50 values, nAChRs compared",[25],0.89
same,"Difference of Imax values, nAChRs compared",[26],-0.057
same,"Difference of pEC50 values, nAChRs compared",[26],-0.20
same,"Difference of Imax values, nAChRs compared",Dα1/Dα3/Dβ1 vs. Dα1/Dβ1/Dβ2,0.267
same,"Difference of pEC50 values, nAChRs compared",Dα1/Dα3/Dβ1 vs. Dα1/Dβ1/Dβ2,0.56
same,"Difference of Imax values, nAChRs compared",Dα1/Dα3/Dβ1 vs. Dα2/Dα3/Dβ1,-0.255
same,"Difference of pEC50 values, nAChRs compared",Dα1/Dα3/Dβ1 vs. Dα2/Dα3/Dβ1,0.39
same,"Difference of Imax values, nAChRs compared",[27],-0.007
same,"Difference of pEC50 values, nAChRs compared",[27],-0.09
same,"Difference of Imax values, nAChRs compared",Dα1/Dα3/Dβ1 vs. Dα3/Dβ1/Dβ2,0.135
same,"Difference of pEC50 values, nAChRs compared",Dα1/Dα3/Dβ1 vs. Dα3/Dβ1/Dβ2,-0.26
same,"Difference of Imax values, nAChRs compared",[28],-0.452
same,"Difference of pEC50 values, nAChRs compared",[28],0.05
same,"Difference of Imax values, nAChRs compared",[29],-0.440
same,"Difference of pEC50 values, nAChRs compared",[29],0.33
